For one assay, the system named is GluN1/2C. Particulars: cited from earlier work.
The next assay has as its system GluN1/2D. Particulars: cited from earlier work.
The subject of another assay is GluN1/2B. Particulars: cited from earlier work.
The test system of another assay is GluN1/2A. Conditions: cited from earlier work.
Another assay deals with GluN1/2D NMDA receptor (Rattus norvegicus, UniProt P35439). The format is cell-based.
The target in another assay is GluN1/2B NMDA receptor (Rattus norvegicus, UniProt P35439). The format is cell-based. Particulars: for current response to analog alone at GluN1/2B: 10 μM analog, continuous presence of 300 μM L-Glu.
The next assay deals with GluN1^FATL/3B receptors (Rattus norvegicus, UniProt Q8VHN2). Kind of assay: Two-electrode voltage-clamp at GluN1^FATL/3B receptors. The class given is cell-based. Conditions: for activation of current responses at GluN1^FATL/3B: 10 μM analog alone; for inhibition of responses to Gly at GluN1^FATL/3B: 10 μM analog in presence of Gly. For orientation: Two-electrode voltage clamp holds a large cell at a set potential and records current.
Sequence of GluN1^FATL/3B receptors (Q8VHN2 25-1002, other chains not shown): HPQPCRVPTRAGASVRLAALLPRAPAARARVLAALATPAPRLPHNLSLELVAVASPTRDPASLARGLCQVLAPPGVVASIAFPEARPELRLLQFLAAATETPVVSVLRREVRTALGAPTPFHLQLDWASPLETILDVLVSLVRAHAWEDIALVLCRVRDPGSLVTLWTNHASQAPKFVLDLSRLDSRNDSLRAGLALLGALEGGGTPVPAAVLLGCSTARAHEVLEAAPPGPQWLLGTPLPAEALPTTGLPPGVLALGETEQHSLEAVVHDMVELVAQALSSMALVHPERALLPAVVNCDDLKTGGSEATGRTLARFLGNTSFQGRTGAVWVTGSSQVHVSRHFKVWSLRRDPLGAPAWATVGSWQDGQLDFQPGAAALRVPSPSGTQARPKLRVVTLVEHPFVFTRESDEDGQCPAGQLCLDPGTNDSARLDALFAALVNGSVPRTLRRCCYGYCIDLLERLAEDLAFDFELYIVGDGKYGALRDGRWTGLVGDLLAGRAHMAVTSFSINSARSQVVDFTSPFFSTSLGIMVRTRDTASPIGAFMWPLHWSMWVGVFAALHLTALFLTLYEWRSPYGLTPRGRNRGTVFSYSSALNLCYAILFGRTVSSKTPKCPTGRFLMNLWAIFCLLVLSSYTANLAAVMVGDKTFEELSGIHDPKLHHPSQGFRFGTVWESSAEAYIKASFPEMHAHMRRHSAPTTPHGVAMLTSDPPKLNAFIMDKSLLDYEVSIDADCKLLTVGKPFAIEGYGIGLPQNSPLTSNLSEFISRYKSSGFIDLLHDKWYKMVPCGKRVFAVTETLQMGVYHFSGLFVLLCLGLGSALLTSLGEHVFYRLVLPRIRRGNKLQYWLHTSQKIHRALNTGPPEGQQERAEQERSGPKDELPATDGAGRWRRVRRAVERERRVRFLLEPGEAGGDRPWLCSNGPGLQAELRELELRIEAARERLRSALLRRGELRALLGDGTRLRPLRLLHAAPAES

In a further assay the target is GluN1^FATL/3A receptors (Rattus norvegicus, UniProt Q9R1M7). Kind of assay: Two-electrode voltage-clamp at GluN1^FATL/3A receptors. The class given is cell-based. Particulars: for activation of current responses at GluN1^FATL/3A: 10 μM analog alone; for inhibition of responses to Gly at GluN1^FATL/3A: 10 μM analog in presence of Gly.
Sequence of GluN1^FATL/3A receptors (Q9R1M7 24-1115 isoform Q9R1M7-2 limits assumed, other chains not shown): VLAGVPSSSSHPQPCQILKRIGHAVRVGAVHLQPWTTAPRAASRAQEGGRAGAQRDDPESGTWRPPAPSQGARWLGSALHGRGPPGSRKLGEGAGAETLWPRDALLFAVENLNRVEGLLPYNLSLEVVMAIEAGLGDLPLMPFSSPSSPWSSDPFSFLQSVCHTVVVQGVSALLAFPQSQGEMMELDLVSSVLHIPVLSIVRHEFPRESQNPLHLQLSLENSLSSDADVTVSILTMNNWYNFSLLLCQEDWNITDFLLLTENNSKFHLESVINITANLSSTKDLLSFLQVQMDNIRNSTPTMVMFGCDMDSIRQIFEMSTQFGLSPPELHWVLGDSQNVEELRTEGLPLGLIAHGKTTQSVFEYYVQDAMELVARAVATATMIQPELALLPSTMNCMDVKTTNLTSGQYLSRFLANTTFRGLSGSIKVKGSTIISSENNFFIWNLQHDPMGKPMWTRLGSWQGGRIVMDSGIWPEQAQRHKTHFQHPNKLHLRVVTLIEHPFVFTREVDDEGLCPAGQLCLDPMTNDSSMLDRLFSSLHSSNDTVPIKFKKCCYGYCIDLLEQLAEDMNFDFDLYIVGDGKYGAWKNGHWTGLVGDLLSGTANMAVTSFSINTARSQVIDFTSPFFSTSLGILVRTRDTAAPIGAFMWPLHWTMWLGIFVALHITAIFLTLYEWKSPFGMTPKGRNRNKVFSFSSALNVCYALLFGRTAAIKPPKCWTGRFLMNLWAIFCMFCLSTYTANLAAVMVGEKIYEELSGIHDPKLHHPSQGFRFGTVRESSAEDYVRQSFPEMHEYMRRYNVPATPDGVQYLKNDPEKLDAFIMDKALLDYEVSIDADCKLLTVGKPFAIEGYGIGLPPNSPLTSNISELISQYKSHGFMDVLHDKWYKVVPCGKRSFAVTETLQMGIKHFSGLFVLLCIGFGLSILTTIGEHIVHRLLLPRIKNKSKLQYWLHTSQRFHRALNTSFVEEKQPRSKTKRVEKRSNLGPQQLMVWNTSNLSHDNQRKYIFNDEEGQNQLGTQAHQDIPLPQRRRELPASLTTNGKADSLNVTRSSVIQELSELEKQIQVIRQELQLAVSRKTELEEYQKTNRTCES
In assay [1] the target is Gly binding site in GluN1/2B receptors (Rattus norvegicus, UniProt P35439+Q00960). Briefly: Inhibition of Gly responses at recombinant GluN1/2B. The format is cell-based.
Another assay addresses GluN1/2A-V783F (Rattus norvegicus, UniProt P35439). Kind of assay: Two-electrode voltage-clamp at mutated GluN1/2A-V783F receptors. Conditions: 10 μM analog; 300 μM L-Glu. The format is cell-based.
The next assay concerns the target GluN1/2B-F784V (Rattus norvegicus, UniProt P35439). Briefly: Two-electrode voltage-clamp at mutated GluN1/2B-F784V receptors. The format is cell-based. Conditions: 10 μM analog; 300 μM L-Glu.
In another assay the target is GluN1/2A NMDA receptor (Rattus norvegicus, UniProt P35439). The class given is cell-based.
The next assay deals with GluN1/2B-F784L (Rattus norvegicus, UniProt P35439). Kind of assay: Two-electrode voltage-clamp at mutated GluN1/2B-F784L receptors. The format is cell-based. Particulars: 10 μM analog; 300 μM L-Glu.
A further assay has as its target GluN1/2A-V783L (Rattus norvegicus, UniProt P35439). Briefly: Two-electrode voltage-clamp at mutated GluN1/2A-V783L receptors. The class given is cell-based. Conditions: 10 μM analog; 300 μM L-Glu.
Setting [2] is: maximal response compared to Gly.

Entries after “also recorded” stand apart in the source; their conditions may differ.

As for `CCc1ccccc1-c1cccc2[nH]c(C(=O)NC[C@@H](N)C(=O)O)cc12` [AICP, (R)-2-Amino-3-(4-(2-ethylphenyl)-1H-indole-2-carboxamido)propanoic acid], in the assay with GluN1/2C (setting [2]), the “Rmax at GluN1/2C” value is 353%. Also, the EC50 with GluN1/2C (read-out: EC50 at GluN1/2C, superagonism) was 1.7 nM; with GluN1/2D (read-out: EC50 at GluN1/2D, partial agonist) it was 25 nM; with GluN1/2B (read-out: EC50 at GluN1/2B, partial agonist) it was 25 nM; in the assay on GluN1/2A (read-out: EC50 at GluN1/2A, full agonism), 66 nM. Besides, the “Rmax at GluN1/2D” value in the assay on GluN1/2D (setting [2]) is given as 27%. Besides, the “Rmax at GluN1/2B” value in the assay with GluN1/2B (setting [2]) is given as 10%. For the same compound, the “Rmax at GluN1/2A” value with GluN1/2A (setting [2]) is 100%.

Regarding `N[C@H](CNC(=O)c1ccc(-c2ccccc2C(F)(F)F)o1)C(=O)O` [Compound 8d, (R)-2-Amino-3-(5-(2-(trifluoromethyl)phenyl)furan-2-carboxamido)propanoic acid], on GluN1/2D NMDA receptor, the “agonist activity at GluN1/2D (in words)” value was “no agonist activity”. Further, the “agonist activity at GluN1/2B (in words)” value on GluN1/2B NMDA receptor is given as “no agonist activity”.

Take `CCc1ccccc1-c1ccc(C(=O)NC[C@@H](N)C(=O)O)o1` [Compound 8h, (R)-2-Amino-3-(5-(2-ethylphenyl)furan-2-carboxamido)propanoic acid]: at GluN1^FATL/3B receptors, the “activation of current responses at GluN1^FATL/3B” value is recorded as “No responses; also recorded: did not activate current responses” and the “inhibition of responses to Gly at GluN1^FATL/3B” value is “did not inhibit responses to Gly”. Also, at GluN1^FATL/3A receptors, the “activation of current responses at GluN1^FATL/3A” value is “No responses; also recorded: did not activate current responses” and the “inhibition of responses to Gly at GluN1^FATL/3A” value is reported as “did not inhibit responses to Gly”. The Ki – broadly, a measure of affinity in units of concentration, obtained from inhibition or displacement – in assay [1] was approximately 100 nM. Moreover, on GluN1/2B NMDA receptor, the “agonist activity at GluN1/2B (in words)” value is reported as “no agonist activity” and the “current response to analog alone at GluN1/2B” value was “unable to activate any current responses; also recorded: No responses”.

Take `N[C@H](CNC(=O)c1ccc(-c2ccc(Cl)cc2[N+](=O)[O-])o1)C(=O)O` [Compound 8p, (R)-2-amino-3-(5-(4-chloro-2-nitrophenyl)furan-2-carboxamido)propanoic acid]: on GluN1^FATL/3B receptors, the “activation of current responses at GluN1^FATL/3B” value is listed as “No responses; also recorded: did not activate current responses” and the “inhibition of responses to Gly at GluN1^FATL/3B” value is “did not inhibit responses to Gly”. The “maximal response relative to Gly at GluN1/2A-V783F versus wild type” value on GluN1/2A-V783F was “reduced the maximal response”. On GluN1/2B-F784V, the “maximal response relative to Gly at GluN1/2B-F784V versus wild type” value was “did not significantly increase the maximal response”. Further, at GluN1^FATL/3A receptors, the “activation of current responses at GluN1^FATL/3A” value is “No responses; also recorded: did not activate current responses” and the “inhibition of responses to Gly at GluN1^FATL/3A” value was “did not inhibit responses to Gly”. Further, the “agonist activity at GluN1/2D (in words)” value on GluN1/2D NMDA receptor is “virtually no agonist activity”. Besides, the Ki in [1] was approximately 100 nM. Moreover, at GluN1/2B NMDA receptor, the “agonist activity at GluN1/2B (in words)” value is recorded as “virtually no agonist activity” and the “current response to analog alone at GluN1/2B” value is given as “unable to activate any current responses; also recorded: No responses”. The “agonist activity at GluN1/2A (in words)” value at GluN1/2A NMDA receptor is listed as “virtually no agonist activity”. Moreover, the “maximal response relative to Gly at GluN1/2B-F784L versus wild type” value at GluN1/2B-F784L is on record as “did not significantly increase the maximal response”. For the same compound, the “maximal response relative to Gly at GluN1/2A-V783L versus wild type” value at GluN1/2A-V783L is “reduced the maximal response”.
